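Method: 48-hour compound exposure of cells in 96-well plates, five concentrations, linear interpolation of endpoints. GI50 is the concentration that inhibits growth by half.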 Calls of active or inactive are those of the source. Cut-off read from the data, not from the text of the source: active = GI50 up to about 1.1 µM and inactive = higher. Starred links: 1 amine or outer side, 2 acyl side, 3 side chain; linkers in the order of their positions; H or OH if unused. Non-standard residues stand in square brackets, D forms with d. Residues, ends and D or L forms follow the SMILES beside them. X41 = CSCCCC(N[*:1])C(=O)[*:2]
Tests used:
Test in all cases: DTP human tumour cell line panel, 48 h
[1] = system: BT-549
[2] = system: Hs-578T
[3] = system: DMS-114
[4] = system: DMS-273
[5] = system: LXFL 529
[6] = system: M19-MEL
[7] = system: XF498
[8] = system: HOP-18
[9] = system: RXF 631

SMILES | GI50 [1] | GI50 [2] | GI50 [5] | also measured
COc1cc(Nc2ccc3c(c2)CCC3)nc(OC)n1 | 33.3 µM (inactive) | 6.58 µM (inactive) | – | –
Cc1ccc(C2=C(c3ccccc3)C(O)(c3ccc(C)cc3)C(c3ccccc3)=C2c2ccc(C)cc2)cc1 | – | – | 60.1 µM (inactive) | GI50 [3]: > 100 µM (inactive); GI50 [4]: > 100 µM (inactive); GI50 [6]: > 100 µM (inactive); GI50 [7]: > 100 µM (inactive)
CC1CCN(C(C)C)P(=S)(Cc2ccccc2)O1 (stereo unspecified) | 28.1 µM (inactive) | – | – | –
Cc1ccc2[nH]c(=O)c(-c3cnc(O)nn3)c(O)c2c1 | 80.2 µM (inactive) | > 100 µM (inactive) | – | –
O/N=C1/C(=C/c2ccc(Br)cc2)CCCC1C(NO)c1ccc(Br)cc1 (stereo unspecified) | – | – | 14.8 µM (inactive) | GI50 [3]: 13.5 µM (inactive); GI50 [4]: 13.1 µM (inactive); GI50 [8]: 18.9 µM (inactive); GI50 [6]: 17 µM (inactive); GI50 [9]: 14.8 µM (inactive)
O=C1c2cn[nH]c2N=C(Nc2ccccc2)C1/N=C/c1ccc([N+](=O)[O-])cc1 (stereo unspecified) | > 10 µM (inactive) | > 10 µM (inactive) | – | –
CC1C(c2ccccc2O)c2cc3c(cc2OC1N1CCOCC1)OCO3 (stereo unspecified) | 27.4 µM (inactive) | 19.4 µM (inactive) | – | –
Cc1ccc2c(c1)C(=O)C(Cc1ccccc1C(=O)O)C2 (stereo unspecified) | > 100 µM (inactive) | > 100 µM (inactive) | – | –
C=CCC(CNC(=O)OCc1ccccc1)OC(=O)OCc1ccccc1 (stereo unspecified) | > 100 µM (inactive) | > 100 µM (inactive) | – | –
O=c1c2ccccc2nc(-c2cccc([N+](=O)[O-])c2)n1O | 12 µM (inactive) | > 100 µM (inactive) | – | –
C[C@]12CC[C@H]3[C@@H](CC=C4C[C@@H](N5CCCC5)CC[C@@]43C)[C@@H]1C/C(=C\c1ccc([N+](=O)[O-])cc1)[C@@H]2O | 13.5 µM (inactive) | 18.5 µM (inactive) | – | –
Cc1nnc(-n2c(O)cc(=O)n(-c3ccccc3)c2=S)nc1/C=C/c1ccc(N(C)C)cc1 | 20.9 µM (inactive) | 4.99 µM (inactive) | – | –
COc1cc(C=O)c(-c2cc(OC)c(OC)cc2C=O)cc1OC | – | – | > 100 µM (inactive) | GI50 [3]: 24.3 µM (inactive); GI50 [4]: > 100 µM (inactive); GI50 [8]: > 100 µM (inactive); GI50 [6]: > 100 µM (inactive)
Cc1oc2nc1C(=O)NCc1nc(cs1)C(=O)N[C@H](C(C)C)c1nc(cs1)C(=O)N[C@H]2C | > 100 µM (inactive) | 75.3 µM (inactive) | – | –
NC(Cc1ccccc1)C(=O)OCN1C(=O)C2C3C=CC(C2C1=O)C1C2C(=O)N(COC(=O)C(N)Cc4ccccc4)C(=O)C2C31 (stereo unspecified) | – | – | 19.4 µM (inactive) | GI50 [3]: 20.9 µM (inactive); GI50 [7]: 30.8 µM (inactive)
Cc1ccc(C(=O)/C=C/c2ccccc2Cl)cc1 | – | – | 15.3 µM (inactive) | GI50 [3]: 18.3 µM (inactive); GI50 [4]: 15.2 µM (inactive); GI50 [8]: 26.8 µM (inactive); GI50 [6]: 18.8 µM (inactive)
Cc1cc2[nH]c3c(C#N)c(-c4ccccc4)c(/C=N/c4ccc(F)cc4)c(=O)n3c2cc1C | > 100 µM (inactive) | – | – | –
N#CC1(C#N)C(c2ccccc2)NC23CCCCC2C1(C#N)C(=O)N3 (stereo unspecified) | > 100 µM (inactive) | – | – | –
COc1oc(C2C/C(=C/C(C)=C/C(C)=C/C(C)=C/c3ccc([N+](=O)[O-])cc3)CO2)c(C)c(=O)c1C (stereo unspecified) | 2.73 µM (inactive) | 5.89 µM (inactive) | – | –
CC(=O)OCC1OC(n2c(=O)n(-c3ccccc3)c(=O)c3ccccc32)C(OC(C)=O)C(OC(C)=O)C1OC(C)=O (stereo unspecified) | – | – | > 100 µM (inactive) | GI50 [3]: > 100 µM (inactive); GI50 [4]: > 100 µM (inactive); GI50 [8]: > 100 µM (inactive); GI50 [6]: > 100 µM (inactive); GI50 [9]: > 100 µM (inactive)
C/C(C[n+]1ccccc1)=N\N=C(N)N | > 100 µM (inactive) | > 100 µM (inactive) | – | –
O=C1NC(N2CCOCC2)=N/C1=C\c1ccc(Cl)cc1 | > 100 µM (inactive) | > 100 µM (inactive) | – | –
CC(=O)OC1CC[C@]2(C)C3CC[C@@]4(C)C(CCC4[C@H](C)CCCC(C)C)[C@@H]3CCC2(Br)C1 (stereo partly specified) | – | 10.1 µM (inactive) | – | –
CC(=O)OC1C=CC2CCN3C(=O)c4cc5c(cc4[C@H]1C23)OCO5 (stereo partly specified) | – | – | > 100 µM (inactive) | GI50 [3]: > 100 µM (inactive); GI50 [4]: > 100 µM (inactive); GI50 [6]: > 100 µM (inactive)
C[N+](C)(C)CC1CCC(C[N+](C)(C)C)C1=NO (stereo unspecified) | – | – | > 100 µM (inactive) | GI50 [8]: > 100 µM (inactive); GI50 [6]: > 100 µM (inactive); GI50 [7]: > 100 µM (inactive)
O=C(O)c1cc(-c2ccncc2)nc2ccccc12 | > 100 µM (inactive) | > 100 µM (inactive) | – | –
O=C(/C=C/c1ccccc1)Oc1ccc(C(=O)/C=C/c2ccccc2)cc1 | 6.49 µM (inactive) | 23.3 µM (inactive) | – | –
NC(CP(=O)(O)O)C(=O)O (stereo unspecified) | > 100 µM (inactive) | > 100 µM (inactive) | – | –
CSCCCC(NC(=O)CNC(=O)C1CCCN1C(=O)C(Cc1ccc(O)cc1)NC(=O)C(Cc1ccccc1)NC(=O)C(CCCNC(=N)N)NC(=O)C(CC(=O)O)NC(=O)C1CCCN1C(=O)C(CC(=O)O)NC(=O)C1CCCN1C(=O)C1CCCN1C(=O)CN)C(N)=O (stereo unspecified) (H-GPPDPDRFYPG[X41]-NH2; configuration not given here) | > 50 µM (inactive) | > 50 µM (inactive) | – | –
O=c1oc2c(O)c(O)c(O)c3c(=O)oc4c(O)c(O)cc1c4c23 [FLAVELLAGIC ACID] | – | – | 73.1 µM (inactive) | GI50 [3]: 29.7 µM (inactive); GI50 [4]: 85.1 µM (inactive); GI50 [8]: > 100 µM (inactive); GI50 [6]: 9.79 µM (inactive)
